Experiment: Stability: hourly moisture content (moisture absorption from the air)
Format: physicochemical
Source text: As a result, the moisture content increased, as the time went by. […] The elementary analysis data for the aforementioned hydrates is illustrated in the following Table 2.

moisture content (60% RH, Time 1 hour): 6.2%
moisture content (60% RH, Time 2 hour): 9.1%
moisture content (60% RH, Time 3 hour): 9.15%
moisture content (60% RH, Time 4 hour): 9.1%
moisture content (60% RH, Time 5 hour): 9.2%
moisture content (60% RH, Time 6 hour): 9.1%
moisture content (75% RH, Time 1 hour): 9.05%
moisture content (75% RH, Time 2 hour): 9.1%
moisture content (75% RH, Time 3 hour): 9.1%
moisture content (75% RH, Time 4 hour): 9.15%
moisture content (75% RH, Time 5 hour): 9.2%
moisture content (75% RH, Time 6 hour): 9.1%
moisture content (Room temperature & Room humidity, Time 1 hour): 3.4%
moisture content (Room temperature & Room humidity, Time 2 hour): 5.6%
moisture content (Room temperature & Room humidity, Time 3 hour): 9.1%
moisture content (Room temperature & Room humidity, Time 4 hour): 9.2%
moisture content (Room temperature & Room humidity, Time 5 hour): 9.1%
moisture content (Room temperature & Room humidity, Time 6 hour): 9.1%
SMILES: CCCCc1nc(C)c(CC(=S)N(C)C)c(=O)n1Cc1ccc(-c2ccccc2-c2nnn[nH]2)cc1 [Example 3, 2-n-butyl-5-dimethylaminothiocarbonylmethyl-6-methyl-3-[[2′-(1 H-tetrazol-5-yl)biphenyl-4-yl]methyl]-pyrimidin-4(3H)-one]
